Like-named read-outs stand apart in the source and are kept apart here.
What was measured:
[1] = test system: tumor necrosis factor-α secretion in RAW 264.7 cells; assay: Inhibition of LPS-stimulated tumor necrosis factor-α secretion in RAW 264.7 cells (ELISA); format: cell-based, mouse; settings: Mus musculus, RAW264.7, 4 h, read-out: Tumor necrosis factor-α inhibition rate/%
Procedure: After the activation by bacterial lipopolysaccharide (LPS), various inflammatory mediators such as tumor necrosis factor-α will be released; Phosphodiesterase PDE4 is also expressed in macrophages, and the inhibitory activity of the compound on phosphodiesterase PDE4 can be reflected by detecting the secretion of tumor necrosis factor-α.
Under the stimulation of 1 μg/ml LPS (L5886, Sigma, St. Louis, MO, USA), the cells were cultured in a 37° C., 5% CO2 incubator for 4 h. The background control with no stimulant and stimulation control wells were also set, with a total volume of 200 μl. The culture supernatant was collected by centrifugation, and the secretion level of tumor necrosis factor-α in the culture supernatant was detected by enzyme-linked immunosorbent assay. The tumor necrosis factor-α detection kit was purchased from BD Pharmingen (San Diego, CA, USA).

[2] = test system: TNF-α secretion in PBMC; assay: Inhibition of LPS-stimulated TNF-α secretion in PBMC (ELISA); format: cell-based; settings: Homo sapiens; for inhibition at 1 µM / inhibition at 10 µM: read-out: Inhibition rate %; for IC50: read-out: IC50
Source text: According to the difference in cell density in human blood, PBMC (peripheral blood mononuclear cell, PBMC) was directly separated and purified by gradient centrifugation using lymphocyte separation fluid. The cell type was mononuclear cells in blood, mainly including lymphocytes (T/B), monocytes, macrophages, dendritic cells and other minor cell types, of which lymphocytes account for a large part, which can directly in vitro simulate the blood immune environment.
PBMC cells isolated from human blood were implanted into 96-well plates at 2*10^5/ml; compounds in gradients were added, with at least three replicates for each gradient; After the PBMCs were incubated at 37° C., 5% CO2 for 1 hour, LPS was added (the final concentration was 10 ug/ml) to stimulate PBMC to express TNF-α, and incubated for another 18-20 h at 37° C., 5% C02. The 96-well plate was collected. The background control with no stimulant and stimulation control wells were also set, with a total volume of 200 μl. The culture supernatant was collected by centrifugation, and the expression level of TNF-α in the culture supernatant was detected by ELISA.

[3] = test system: RAW 264.7 cells; assay: Cytotoxicity on RAW 264.7 cells (CCK-8 method); format: cell-based, mouse
[4] = molecular target: Human PDE4D catalytic domain (Homo sapiens (Human), UniProt Q08499); assay: Scintillation Proximity Assay (SPA), inhibition of PDE4D catalytic domain activity; format: biochemical; settings: for inhibition at 1 µM: read-out: PDE4D enzyme activity inhibition rate %; for IC50: PDE4D, unit given as mM, read-out: IC50
Human PDE4D catalytic domain, sequence (Q08499 386-715): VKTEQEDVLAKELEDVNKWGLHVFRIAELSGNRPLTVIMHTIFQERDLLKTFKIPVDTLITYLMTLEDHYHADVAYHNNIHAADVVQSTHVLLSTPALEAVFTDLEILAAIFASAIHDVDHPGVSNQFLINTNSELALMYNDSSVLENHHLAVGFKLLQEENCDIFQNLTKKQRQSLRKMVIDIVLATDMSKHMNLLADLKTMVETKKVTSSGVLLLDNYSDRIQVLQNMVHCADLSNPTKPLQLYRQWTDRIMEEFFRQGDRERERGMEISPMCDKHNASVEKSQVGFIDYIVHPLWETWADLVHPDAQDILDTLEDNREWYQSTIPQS
Procedure: The scintillation Proximity Assay (SPA) method was used to determine the inhibitory effect of compounds on the activity of PDE4D catalytic domain. Human PDE4D catalytic domain protein was obtained by expression and purification in E. coli. […] [^3H]-cAMP, scintillation beads (RPNQO150, Perkin Elmer), and 96-well scintillation microplates (Isoplate-96, Perkin Elmer) were purchased from Perkin Elmer Company.
Finally, 10 μl [^3H]-cAMP (0.005 μCi/μl) was added and incubated for 30 min at 30° C. in a water bath. 50 μl SPA beads was added to quench the reaction, shaked appropriately, and stood for 20 minutes. A microplate scintillation counter was used.

| SMILES | inhibition at 1 µM ([4]; Compound concentration: 1 μM) [%] | IC50 [4] [mM] | inhibition at 0.5 µM ([1]; RAW 264.7, 0.5 μM) [%] | inhibition at 5 µM ([1]; RAW 264.7, 5 μM) [%] | inhibition at 50 µM ([1]; RAW 264.7, 50 μM) [%] | inhibition at 1 µM ([2]; TNF-α secretion in PBMC, 1 μM) [%] | inhibition at 10 µM ([2]; TNF-α secretion in PBMC, 10 μM) [%] | Cell survival rate/% ([3]; RAW 264.7, 0.5 μM) [%] | Cell survival rate/% ([3]; RAW 264.7, 5 μM) [%] | Cell survival rate/% ([3]; RAW 264.7, 50 μM) [%] | IC50 ([2]; TNF-α secretion in PBMC) [nM] | inhibition at 1 µM [4] [%] | inhibition at 0.5 µM [1] [%] | inhibition at 5 µM [1] [%] | inhibition at 50 µM [1] [%] | inhibition at 1 µM ([2]; PBMC) [%] | inhibition at 10 µM ([2]; PBMC) [%] |
| --- | --- | --- | --- | --- | --- | --- | --- | --- | --- | --- | --- | --- | --- | --- | --- | --- | --- |
| COc1cc2c(cc1OC)[C@H](CCc1c[nH]c3ccccc13)N(C(=O)C(F)(F)F)CC2 [(S)-B10, (S)-1-(1-(2-(1H-indol-3-yl)ethyl)-6,7-dimethoxy-3,4-dihydroisoquinoline-2(1H)-yl)-2,2,2-trifluoroethane-1-one] | 29.5 | – | -3 | -27.9 | 33.7 | 19.9 | 59.6 | 89.2 | 84.9 | 93.8 | – | – | – | – | – | – | – |
| COCC(=O)N1CCc2cc(OC)c(OC)cc2[C@@H]1CCc1c[nH]c2ccccc12 [(S)-B11, (S)-1-(1-(2-(1H-indol-3-yl)ethyl)-6,7-dimethoxy-3,4-dihydroisoquinoline-2(1H)-yl)-2-methoxyethane-1-one] | 82.9 | 0.00019 | -7.8 | 1.1 | 51.3 | 60.1 | 90.7 | 110.9 | 111.2 | 102.2 | 240 | – | – | – | – | – | – |
| CCOc1cc2c(cc1OC)CCN(C(=O)COC)[C@H]2CCc1c[nH]c2ccccc12 [(S)-B12, (S)-1-(1-(2-(1H-indol-3-yl)ethyl)-7-ethoxy-6-methoxy-3,4-dihydroisoquinoline-2(1H)-yl)-2-methoxyethane-1-one] | 92.2 | 0.00025 | -12.7 | 6.8 | 52.4 | 44.2 | 80.7 | 83.8 | 95.3 | 75.2 | – | – | – | – | – | – | – |
| COc1cc2c(cc1OC1CCCC1)[C@H](CCc1c[nH]c3cc(C)ccc13)N(C=O)CC2 [(S)-C3, (S)-7-(cyclopentyloxy)-6-methoxy-1-(2-(6-methyl-1H-indol-3-yl)ethyl)-3,4-dihydroisoquinoline-2(1H)-formaldehyde] | 24.1 | – | 6.3 | 6 | 95.1 | 12.1 | 79.2 | 88.2 | 100 | 89.2 | – | – | – | – | – | – | – |
| COc1ccc2[nH]cc(CC[C@H]3c4cc(C(=O)O)c(OC)cc4CCN3C=O)c2c1 [(S)-C68, (S)-2-formyl-6-methoxy-1-(2-(5-methoxy-1H-indol-3-yl)ethyl)-1,2,3,4-tetrahydroisoquinoline-7-carboxylic acid] | 83.1 | – | – | – | – | – | – | – | – | – | – | – | – | – | – | – | – |
| CNC(=O)c1cc2c(cc1OC)CCN(C=O)[C@H]2CCc1c[nH]c2ccc(OC)cc12 [(S)-C69, (S)-2-formyl-6-methoxy-1-(2-(5-methoxy-1H-indol-3-yl)ethyl)-N-methyl-1,2,3,4-tetrahydroisoquinoline-7-carboxamide] | 80.5 | – | – | – | – | – | – | – | – | – | – | – | – | – | – | – | – |
| COc1ccc2[nH]cc(CC[C@H]3c4cc(C(N)=O)c(OC)cc4CCN3C=O)c2c1 [(S)-C70, (S)-2-formyl-6-methoxy-1-(2-(5-methoxy-1H-indol-3-yl)ethyl)-1,2,3,4-tetrahydroisoquinoline-7-carboxamide] | 83.8 | – | – | – | – | – | – | – | – | – | – | – | – | – | – | – | – |
| COc1ccc2[nH]cc(CC[C@H]3c4cc(C(F)F)c(OC)cc4CCN3C=O)c2c1 [(S)-C71, (S)-7-difluoromethyl-1-(2-(5-methoxy-1H-indol-3-yl)ethyl)-6-methoxy-3,4-dihydroisoquinoline-2(1H)-formaldehyde] | – | – | – | – | – | – | – | – | – | – | – | 81.8 | – | – | – | – | – |
| CCOc1cc2c(cc1OC)CCN(C=O)[C@H]2CCc1c[nH]c2ccc(OC(F)(F)F)cc12 [(S)-C76, (S)-7-ethoxy-6-methoxy-1-(2-(5-trifluoromethoxy-1H-indol-3-yl)ethyl)-3,4-dihydroisoquinoline-2(1H)-formaldehyde] | 92.3 | – | – | – | – | – | – | – | – | – | – | – | – | – | – | – | – |
| CCOc1cc2c(cc1OC)CCN(C=O)[C@H]2CCc1c[nH]c2ccc(OC(F)F)cc12 [(S)-C77, (S)-7-ethoxy-6-methoxy-1-(2-(5-difluoromethoxy-1H-indol-3-yl)ethyl)-3,4-dihydroisoquinoline-2(1H)-formaldehyde] | 93.5 | – | – | – | – | – | – | – | – | – | – | – | – | – | – | – | – |
| COc1cc2c(cc1OC1CCCC1)C(CCc1c[nH]c3ccccc13)N(C=O)CC2 (centres unmarked) [Compound A2, 1-(2-(1H-indol-3-yl)ethyl)-7-(cyclopentyloxy)-6-metthoxy-3,4-dihydroisoquinoline-2(1H)-formaldehyde] | 19.2 | 0.00299 | 9.7 | -4.4 | 99.4 | – | 43 | 111.6 | 113 | 55.1 | – | – | – | – | – | – | – |
| COc1cc2c(cc1OCc1ccccc1)C(CCc1c[nH]c3ccccc13)N(C=O)CC2 (centres unmarked) [Compound A5, 1-(2-(1H-indol-3-yl)ethyl)-7-(benzyloxy)-6-methoxy-3,4-dihydroisoquinoline-2(1H)-formaldehyde] | 10.8 | – | -0.2 | -8.1 | 79.3 | – | 23.8 | 118.7 | 120.8 | 111.3 | – | – | – | – | – | – | – |
| COC(=O)CN1CCc2cc(OC)c(OC)cc2C1CCc1c[nH]c2ccccc12 (centres unmarked) [Compound B5, methyl-2-(1-(2-(1H-indol-3-yl)ethyl)-6,7-dimethoxy-3,4-dihydroisoquinoline-2(1H)-yl) acetate] | – | – | – | – | – | – | – | 86 | 88.2 | 103.8 | – | 39.1 | -2.1 | 20 | 47.9 | 21.7 | 55.2 |
| COc1cc2c(cc1OC)C(CCc1c[nH]c3ccccc13)N(CC1CCOCC1)CC2 (centres unmarked) [Compound B7, 1-(2-(1H-indol-3-yl)ethyl)-6,7-dimethoxy-2-((tetrahydro-2H-pyran-4-yl)methyl)-1,2,3,4-tetrahydroisoquinoline] | 6.7 | – | 4.3 | 2.3 | 82.2 | – | 36.6 | 98.1 | 114.1 | 122.6 | – | – | – | – | – | – | – |

The next lines start with results.

| inhibition at 1 µM ([4]; Compound concentration: 1 μM) [%] | IC50 [4] [mM] | SMILES | inhibition at 0.5 µM ([1]; RAW 264.7, 0.5 μM) [%] | inhibition at 5 µM ([1]; RAW 264.7, 5 μM) [%] | inhibition at 50 µM ([1]; RAW 264.7, 50 μM) [%] | inhibition at 1 µM ([2]; TNF-α secretion in PBMC, 1 μM) [%] | inhibition at 10 µM ([2]; TNF-α secretion in PBMC, 10 μM) [%] | Cell survival rate/% ([3]; RAW 264.7, 0.5 μM) [%] | Cell survival rate/% ([3]; RAW 264.7, 5 μM) [%] | Cell survival rate/% ([3]; RAW 264.7, 50 μM) [%] | IC50 ([2]; TNF-α secretion in PBMC) [nM] | inhibition at 1 µM [4] [%] | inhibition at 0.5 µM [1] [%] | inhibition at 5 µM [1] [%] | inhibition at 50 µM [1] [%] | inhibition at 1 µM ([2]; PBMC) [%] | inhibition at 10 µM ([2]; PBMC) [%] |
| --- | --- | --- | --- | --- | --- | --- | --- | --- | --- | --- | --- | --- | --- | --- | --- | --- | --- |
| 30.7 | – | COc1cc2c(cc1OC)C(CCc1c[nH]c3ccccc13)N(C(=O)c1ccncc1)CC2 (centres unmarked) [Compound B1] | -2.4 | -17.8 | 67.9 | 39.8 | 58.5 | 78 | 74.9 | 78.8 | – | – | – | – | – | – | – |
| 19.2 | – | COCCN1CCc2cc(OC)c(OC)cc2C1CCc1c[nH]c2ccccc12 (centres unmarked) [Compound B2, 1-(2-(1H-indol-3-yl)ethyl)-6,7-dimethoxy-2-(2-methoxyethyl)-1,2,3,4-tetrahydroisoquinoline] | 6.2 | 18.8 | 83.9 | – | 25.7 | 88.3 | 83.5 | 71.4 | – | – | – | – | – | – | – |
| 16.4 | – | COc1cc2c(cc1OC)C(CCc1c[nH]c3ccccc13)N(C(=O)C1CCOCC1)CC2 (centres unmarked) [Compound B3, (1-(2-(1H-indol-3-yl)ethyl)-6,7-dimethoxy-3,4-dihydroisoquinoline-2(1H)-yl)(tetrahydro-2H-pyran-4-yl)ketone] | 4.4 | 10.8 | 62.5 | 33.3 | 60.2 | 97.7 | 113.9 | 79.6 | – | – | – | – | – | – | – |
| 82.6 | 0.0003 | COCC(=O)N1CCc2cc(OC)c(OC)cc2C1CCc1c[nH]c2ccccc12 (centres unmarked) [Compound B4, 1-(1-(2-(1H-indol-3-yl)ethyl)-6,7-dimethoxy-3,4-dihydroisoquinoline-2(1H)-yl)-2-methoxyethane-1-one] | -9.2 | -11 | 54.5 | 44.1 | 89.1 | 116.6 | 82.7 | 71.5 | 8020 | – | – | – | – | – | – |
| 19.5 | – | COc1cc2c(cc1OC)C(CCc1c[nH]c3ccccc13)N(CC(F)(F)F)CC2 (centres unmarked) [Compound B6, 1-(2-(1H-indol-3-yl)ethyl)-6,7-dimethoxy-2-(2,2,2-trifluoroethyl)-1,2,3,4-tetrahydroisoquinoline] | 8.2 | -7.1 | 67.5 | – | -23.2 | 117.3 | 87 | 95.3 | – | – | – | – | – | – | – |
| 68.5 | 0.00057 | COc1cc2c(cc1OC)C(CCc1c[nH]c3ccccc13)N(CCS(C)(=O)=O)CC2 (centres unmarked) [Compound B8, 1-(2-(1H-indol-3-yl)ethyl)-6,7-dimethoxy-2-(2-(methylsulfonyl)ethyl)-1,2,3,4-tetrahydroisoquinoline] | 33.6 | 36.1 | 31.8 | 31.6 | 77.8 | 113.4 | 100.7 | 100.5 | – | – | – | – | – | – | – |

Source: US12145923B2, “Tetrahydroisoquinoline compound, preparation method therefor, pharmaceutical composition containing same, and use thereof” (SHANGHAI INSTITUTE OF MATERIA MEDICA, CHINESE ACADEMY OF …, priority 2018, dated 2024)
